Assay results: patent US12714684B2 (ALPARIS, S.A. DE C.V., priority 2019, dated 2026)
Values after ≈ are worked out from the molar mass of the structure shown.

Key:
[1] = Merck Index 15th ed.; cited from earlier work
[2] = system: Complete Freund's Adjuvant (CFA)-induced inflammation; assay: Complete Freund's adjuvant (CFA)-induced inflammation model, volume displacement by plethysmometer; type: in vivo, Sprague-Dawley male rats
Experimental: (§1) Preclinical studies were performed in rats with a chronic inflammation model using complete Freund's adjuvant (CFA) given intra-articularly (AIA), as well as an acute model induced by carrageenan (CAR) given in the subplantar region.
(§2) In these models, the inflammation induced by the complete Freund's adjuvant and carrageenan is determined by the volume displacement measured with a plethysmometer.

[3] = system: CAR-induced thermal hyperalgesia; assay: Thermal hyperalgesia induced by carrageenan; type: in vivo, rats; details: oral 100 mg/kg
[4] = Thermodynamic solubility study in water with 1% LSS; type: physicochemical
Experimental: It was performed by adding 2 g of the solid phase to LSS (sodium lauryl sulfate) medium, with stirring at 37.5° C., and taking aliquots at 3, 5, 10 and 30 minutes. Aliquots were filtered and measurements were made with UV-Vis spectroscopy at 420 nm.
We measured the solubility of the co-amorphous phases at a lower concentration of 0.05 g in 3.5 ml, for determining the effect of concentration on the aggregation phenomenon.

[5] = system: carrageenan (CAR)-induced inflammation; assay: Carrageenan (CAR)-induced subplantar edema model, volume displacement by plethysmometer; type: in vivo, rats; details: for Time from which an anti-inflammatory effect is shown, carrageenan model: oral 100 mg/kg; for Effect in the time course, carrageenan model: oral 100 and 320 mg/kg
Experimental: The carrageenan (CAR)-induced subplantar edema model was used in the evaluation of the acute effect.
as §1, §2

[6] = oral, 100 and 320 mg/kg, 1 h before

SMILES	Solubility in solvents [1]	Effect with respect to the vehicle in the time course, CFA model ([2]; oral 100 mg/kg, at 3 and 4 hours)	Effect with respect to the vehicle in the time course, CFA model ([2]; oral 320 mg/kg, between 2 and 6 hours)	Reversal of the inflammatory effect induced by complete Freund's adjuvant (AUC) [2, 6]	Antihyperalgesic effect, carrageenan-induced thermal hyperalgesia [3]	solubility at 30 min ([4]; water with 1% sodium lauryl sulfate (LSS), aqueous with cosolvent or surfactant or cyclodextrin, thermodynamic from solid, high concentration sample, 37.5° C., water with 1% LSS, 30 min) [µg/mL]	Solubility of curcumin alone in water ([4]; water, could not be determined)	Time from which an anti-inflammatory effect is shown, carrageenan model [5]	Effect with respect to the vehicle in the time course, carrageenan model ([5]; oral 320 mg/kg, at 1 and 2 hours)	Effect in the time course, carrageenan model ([5]; at 6 hours)	Reversal of the inflammatory effect induced by carrageenan (AUC) [5, 6]	Effect in relation to the vehicle in the time course, CFA model ([2]; oral 100 and 320 mg/kg, between 2 and 4 hours)	Effect in the time course, carrageenan model ([5]; first two hours)	Reversal of inflammation induced by complete Freund's adjuvant ([2]; oral, fixed dose 100 mg/kg)	Reversal of inflammation induced by carrageenan ([5]; oral, fixed dose 100 mg/kg)
COc1cc(/C=C/C(=O)CC(=O)/C=C/c2ccc(O)c(OC)c2)ccc1O [curcumin, (1E,6E)-1,7-bis(4-hydroxy-3-methoxyphenyl)-1,6-heptadiene-3,5-dione]	soluble in ethanol and in concentrated acetic acid	shows an inflammatory effect with respect to the vehicle	shows an inflammatory effect with respect to the vehicle	unable to reverse the inflammatory effect	the three treatments produce an antihyperalgesic effect	110 (≈ 299 µM)	almost insoluble in water	only in the last measurement	The same phenomenon is observed	seem to reverse the inflammatory effect induced by carrageenan	unable to reverse the inflammatory effect				
N=C(N)NCCC[C@H](N)C(=O)O [L-arginine]					the three treatments produce an antihyperalgesic effect			only in the last measurement				showed an inflammatory effect in relation to the vehicle	inclined to show a proinflammatory effect		
O=C(O)Cc1ccccc1Nc1c(Cl)cccc1Cl [diclofenac]														exhibited an anti-inflammatory effect	exhibited an anti-inflammatory effect
